Test results reported in patent US10172869B2, “Progesterone receptor modulators for use in the therapy of uterine fibroids” (PregLem SA, priority 2013, dated 2019).
One block for each compound: values may come before it.

Legend:
Type in all cases: in vivo, human
endometrium [1] = test: Example 1 Phase III study: endometrial histology (biopsy); details: for percentage of non-physiological endometrial features: after treatment, 10.9% at screening
Description: (§1) Multicenter, Phase III Study to Investigate the Efficacy and Safety of 3-Months of Treatment with UPA Followed by 10 Days of Treatment with NETA or Placebo
(§2) All patients received a 3-month treatment course of UPA 10 mg once-daily followed by randomized oral NETA 10 mg once-daily or matching placebo for 10 days. UPA treatment was started during the first 4 days of menstruation. NETA or placebo was taken daily for the first 10 days following the cessation of UPA. The schedule incorporated the potential for women to enter an extension study involving repeated intermittent courses of UPA 10 mg.
(§3) In the clinical trial the effect of treatment of uterine fibroids have been assessed by means of parameters such as uterine bleeding using the pictorial blood-loss assessment chart (PBAC), condition of the uterus using transvaginal ultrasound (TVUS) and endometrial biopsy, endometrial histology using endometrial biopsy and pain using the Short-Form McGill Pain Questionnaire (SF-MPQ and quality of life using the Uterine Fibroid Symptom and Health-Related Quality of Life (UFS-QoL) questionnaire.
(§4) The safety endpoints included the number and proportion of patients experiencing treatment-emergent adverse events (TEAEs), including clinically significant changes in vital signs, physical examination, gynecological or breast examination, electrocardiogram (ECG), ovarian ultrasound, changes from baseline in endometrial thickness and clinically significant changes in endometrium biopsy. Other safety endpoints were change from baseline in hematology, coagulation, biochemistry, lipids, adrenocorticotropic hormone (ACTH), thyroid stimulating hormone (TSH) and prolactin, as well as serum levels of estradiol (E2).
(§5) Exploratory endpoints included assessment of the strength of the first menstruation after UPA treatment (using PBAC), time to return of menstruation following treatment end, and frequency of post-treatment PAEC observed in the endometrial biopsy after return of menstruation.

myomas = test: Example 2 long-term extension study: volume of the 3 largest myomas and uterine volume
Excerpt: (§6) Long-Term Extension of a Multicenter, Phase III Study to Investigate the Efficacy and Safety of 3-Months of Treatment with UPA Followed by 10 Days of Treatment with NETA or Placebo in Subjects with Myomas and Heavy Uterine Bleeding
(§7) The study consisted of three periods of 3 months open-label UPA treatment, each followed by 10 days of double-blind treatment with NETA or placebo and then a drug-free period. Subjects were randomly assigned to a NETA or matching placebo arm with a 1:1 ratio.
(§8) In the study of Example 1 and for each present study courses, UPA 10 mg was orally administered once daily for a period of 90 days, followed by 10 mg NETA or matching placebo once daily for a period of 10 days. The first treatment course in the present study consisted of 90 days UPA 10 mg treatment followed by 10 days of double-blind treatment (same as in Example 1 study) started between the first and fourth day of menstruation (inclusive) following visit after the end of treatment, or one month later if uterine sparing surgery had been performed and myomas were still present. The second and third treatment courses of the present study started on the first day of menstruation following visits after ends of each treatment courses, respectively.
(§9) Parameters assessed are the same as it was described in Example 1.

[2] = Example 2 long-term extension study: safety assessments (TEAEs, SAEs); details: intermittent repeated administration schedule
Excerpt: as §6, §7, §8, §9

uterine fibroids [3] = test: Example 1 Phase III study: volume of the three largest fibroids (TVUS)
Description: as §1, §2, §3
(§10) The efficacy end points were: percentage of amenorrheic patients at the end of UPA treatment; change from baseline in the volume of the three largest myomas to end of UPA treatment and 2 weeks after menstruation following end of NETA/placebo treatment; and change from baseline in pain and QoL to end of UPA treatment.

uterine fibroids [4] = test: Example 1 Phase III study: uterine bleeding, amenorrhea and return of menstruation (PBAC)
Description: as §1, §2, §3, §10, §5

endometrium [5] = test: Example 2 long-term extension study: endometrium thickness and endometrium biopsy
Excerpt: as §6, §7, §8, §9

uterine fibroids [6] = test: Example 1 Phase III study: pain (SF-MPQ, VAS) and quality of life (UFS-QoL); details: for pain assessed by the VAS, median change in score: median baseline 38
Description: as §1, §2, §3, §10

endometrium [7] = test: Example 1 Phase III study: endometrial thickness
Description: as §1, §2, §4

[8] = tested on: myomas and heavy uterine bleeding; test: Example 2 long-term extension study: surgery undertaken compared to planned; details: by the end of study; ITT population of 132, surgery initially planned for 66 (50%)
Excerpt: as §6, §7, §8

[9] = Example 1 Phase III study: adverse events (TEAEs, SAEs)
Description: as §1, §2, §4

[10] = tested on: myomas and heavy uterine bleeding; test: Example 2 long-term extension study: pain (SF-MPQ) and quality of life (UFS-QoL, EQ-5D)
Excerpt: as §6, §7, §8, §9

[11] = Example 1 Phase III study: serum hormones and biochemistry (E2, ACTH, TSH, prolactin, transaminases)
Description: as §1, §2, §4

[12] = tested on: myomas and heavy uterine bleeding; test: Example 2 long-term extension study: uterine bleeding, amenorrhea and return of menstruation (PBAC); details: for subjects with more than 9 days of any level of bleeding (heavy bleeding, bleeding or spotting) / percentage of subjects in amenorrhea: ITT Population; for mean time to amenorrhea / median time to amenorrhea: from first dose of UPA in the course
Excerpt: as §6, §7
In study described in Example 1, 251 subjects were screened at 21 sites and 209 subjects started treatment with UPA of which 202 attended the end of UPA treatment visit. Of those that completed study of Example 1 (190 subjects), 132 subjects from 19 sites opted to continue in to the extension study.
as §8, §9

[13] = follow-up visit, approximately 2 weeks after the third menstruation following 4th treatment course
[14] = from day 10 until end of treatment
[15] = from first day of menstruation on, or just prior to, first dose of UPA

Compound: CC(=O)O[C@]1(C(C)=O)CC[C@H]2[C@@H]3CCC4=CC(=O)CCC4=C3[C@@H](c3ccc(N(C)C)cc3)C[C@@]21C [UPA, 17α-acetoxy-11β[4-N,N-dimethylamino-phenyl)-19-norpregna-4,9-diene-3,20-dione]
percentage of non-physiological endometrial features (endometrium [1]): 25.6%
endometrial histology (endometrium [1]; biopsy 12 weeks after UPA treatment (n=38)): benign endometrial histology in all biopsies
endometrial histology (endometrium [1]; following double-blind treatment): benign in all cases
uterine volume measured by US (myomas; during the study, maintained after end of treatment): decreased during the study
total volume of the 3 largest myomas, mean percent change from screening (myomas; end of 4th treatment course): −53.53%
total volume of the 3 largest myomas, median percent change from screening (myomas; end of 4th treatment course): −72.08%
total volume of the 3 largest myomas, mean percent change from screening (myomas; [13]): −33.68%
total volume of the 3 largest myomas, median percent change from screening (myomas; [13]): −58.84%
safety and tolerability assessment [2]: well tolerated
median change in the combined volume of the largest three fibroids (uterine fibroids [3]; after UPA treatment and return of menstruation): −45.8%
median change in the combined volume of the largest three fibroids (uterine fibroids [3]; between baseline and end of UPA treatment): −45.1%
women with a ≥25% reduction in the volume of the three largest fibroids (uterine fibroids [3]; in vivo): 74.7%
percentage of amenorrheic patients (uterine fibroids [4]; end of 3-month UPA 10 mg once-daily treatment): 78.5%
overall total median change in PBAC score (uterine fibroids [4]; first menstruation following treatment completion compared to baseline, median baseline score 216): −91.5
patients on any particular day reporting any bleeding (uterine fibroids [4]; [14]): < 5%
patients on any particular day reporting heavy bleeding (uterine fibroids [4]; [14]): < 2%
mean time to amenorrhea (uterine fibroids [4]; [15]): 10.6 days
median time to amenorrhea (uterine fibroids [4]; [15]): 5.0 days
endometrium biopsy diagnosis by consensus review (endometrium [5]; all biopsy samples, 3 independent pathologists): diagnosis of benign endometrium
incidence of non-physiological changes in endometrium biopsy samples (endometrium [5]; epithelial changes, unusual vascular changes, extensive cyst formation): highest in samples taken following first treatment course and second treatment course
endometrium thickness (endometrium [5]; following a single treatment course of 3 months UPA): an increase in endometrium thickness was observed
frequency of PAEC (endometrium [5]; long-term repeated administration): independent of length of treatment
pain, median change from baseline score (uterine fibroids [6]; Week 5): −5.0
pain assessed by the VAS, median change in score (uterine fibroids [6]; Week 5): −21
pain, median change from baseline score (uterine fibroids [6]; Week 9): −6.0
pain assessed by the VAS, median change in score (uterine fibroids [6]; Week 9): −26
QoL symptom severity, median change from baseline score (uterine fibroids [6]; after UPA treatment): −34.4
health-related QoL (HRQL) total score, median increase compared to baseline (uterine fibroids [6]; after UPA treatment): 28.5
pain, median change from baseline score (uterine fibroids [6]; end of UPA treatment): −6.0
pain assessed by the VAS, median change in score (uterine fibroids [6]; end of UPA treatment): −25
percentage of women with endometrial thickness >16 mm (endometrium [7]; end of UPA treatment, 1.5% at screening): 9.1%
patients with endometrial thickness >16 mm (endometrium [7]; three months later): none of the patients assessed had a thickness >16 mm
subjects for whom surgery was not performed [8]: 94.7%
SAE during the UPA treatment phase ([9]; UPA treatment phase): No SAE occurred
serious adverse events (SAEs) during the study ([9]; all post-treatment, considered not related to study medication): Three serious adverse events (SAEs) were reported for two patients
TEAE breast discomfort/tenderness, women ([9]; during UPA treatment): 3.8%
TEAE fatigue, women ([9]; during UPA treatment): 4.3%
TEAE headache, women ([9]; during UPA treatment): 16.3%
TEAE hot flushes, women ([9]; during UPA treatment): 4.8%
TEAE lower abdominal pain, women ([9]; during UPA treatment): 3.3%
TEAE nasopharyngitis, women ([9]; during UPA treatment): 6.7%
TEAE nausea, women ([9]; during UPA treatment): 3.8%
TEAE pelvic pain, women ([9]; during UPA treatment): 3.8%
TEAE vertigo, women ([9]; during UPA treatment): 3.8%
TEAEs classified as severe ([9]; during UPA treatment): 3.8%
women with TEAEs ([9]; during UPA treatment): 57.4%
women with TEAEs considered to be UPA related ([9]; during UPA treatment): 29.7%
patient-reported pain, 3 SF-MPQ Parts ([10]; all visits): improvement from baseline at all visits
UFS-QoL average symptom severity score ([10]; compared to baseline): improvement (decrease) from baseline
UFS-QoL HRQL total score ([10]; on average, compared to baseline): improvement (increase)
ED-5D questionnaire, pain/discomfort and anxiety/depression dimensions ([10]; throughout the study): improvement was sustained throughout the study
mean E2 level ([11]; Visit 5, during UPA treatment, screening mean 149.9 pg/mL): 81.6 pg/mL
median E2 level ([11]; Visit 5, during UPA treatment, screening median 120.0 pg/mL): 55.0 pg/mL
changes in ACTH, TSH, or prolactin ([11]; during UPA treatment): No significant changes
hepatic transaminases ([11]; small number of patients, all resolved during continued treatment and/or by follow-up visit): marginal increase
subjects with more than 9 days of any level of bleeding (heavy bleeding, bleeding or spotting) ([12]; days 9-90, treatment course 1): 15.9%
subjects with more than 9 days of any level of bleeding (heavy bleeding, bleeding or spotting) ([12]; days 9-90, treatment course 2): 6.3%
subjects with more than 9 days of any level of bleeding (heavy bleeding, bleeding or spotting) ([12]; days 9-90, treatment course 3): 3.4%
subjects with more than 9 days of any level of bleeding (heavy bleeding, bleeding or spotting) ([12]; days 9-90, treatment course 4): 3.9%
percentage of subjects in amenorrhea ([12]; end of treatment course 1): 79.5%
percentage of subjects in amenorrhea ([12]; end of treatment course 2): 88.5%
percentage of subjects in amenorrhea ([12]; end of treatment course 3): 88.2%
percentage of subjects in amenorrhea ([12]; end of treatment course 4): 89.7%
return to menstruation ([12]; following the end of each treatment course): al but 4 subjects with available data returned to menstruation
mean time to amenorrhea ([12]; treatment course 1): 9.4 days
median time to amenorrhea ([12]; treatment course 1): 4.0 days
mean time to amenorrhea ([12]; treatment course 2): 3.3 days
median time to amenorrhea ([12]; treatment course 2): 2.0 days
mean time to amenorrhea ([12]; treatment course 3): 5.3 days
median time to amenorrhea ([12]; treatment course 3): 3.0 days
mean time to amenorrhea ([12]; treatment course 4): 4.2 days
median time to amenorrhea ([12]; treatment course 4): 3.0 days

extensive cyst formation (one of the features of PAEC) (endometrium [1]; after NETA treatment): 2.4%
percentage of non-physiological endometrial features (endometrium [1]): 22.6%
endometrial polyp (endometrium [1]; biopsy 12 weeks after UPA treatment): one benign endometrial polyp
cases of PAEC (endometrium [1]; biopsy 12 weeks after UPA treatment, subgroup): no case of PAEC
percentage of women with endometrial thickness >16 mm (endometrium [7]; after NETA double-blind treatment, 0% at screening): 3.5%
Compound: C#C[C@]1(OC(C)=O)CC[C@H]2[C@@H]3CCC4=CC(=O)CC[C@@H]4[C@H]3CC[C@@]21C [NETA, norethindrone (norethisterone) acetate]
safety and tolerability assessment [2]: did not raise any safety concerns
median return to menstruation following end of UPA treatment (uterine fibroids [4]; NETA 10 mg once-daily for 10 days after UPA, p≤0.001 vs placebo): 14.0 days
median change in PBAC score (uterine fibroids [4]; NETA treatment group, first menstruation following treatment completion compared to baseline, p=0.012 vs placebo): −122
endometrium thickness, comparison of the 2 treatment groups (endometrium [5]; after each treatment course): placebo group were higher compared to those for the NETA group
women reporting events ([9]; double-blind treatment phase, 10 days after UPA): 11.2%
women with TEAEs ([9]; post-treatment phase): 26.5%
heaviness of bleeding as measured by the PBAC score (days 1-8) ([12]; first menstruation after each treatment course): decrease after each subsequent treatment course
median times to return of menstruation following discontinuation of UPA ([12]; treatment courses 1-4, NETA group compared to placebo group, p<0.001): significantly shorter
